In assay [1] the test system is MCF-7 cells. In words: Cytoplasmic superoxide by DHE staining. It is filed as cell-based, human. Particulars: MCF-7, rutin 80 μM, vanillin 120 μM. On the procedure: (§1) Followed by incubation, to measure intracellular ROS, 2-Dichlorofluorescein diacetate (DCFDA) staining was performed. […] Further, cytoplasmic superoxide level was measured by dihydroethidium staining (Fig. 7C). […] In fluorescence imaging, substantial decreases in the extent of DHE fluorescence as compared to control (untreated cells) have been observed (Fig. 7C ). […] Total Reactive oxygen species determination (ROS) content inside the cells was determined using the DCFDA reagent. This assay measures various ROS such as H2O2 and hydroxyl radicals. […] After that cells were washed twice with PBS, pH7.4, trypsinized and collected by centrifugation. Finally cells were resuspended in 300 μl of PBS and fluorescence was measured at Jasco spectroflourimeter (FP-6200) using a 5 mm quartz cuvette. The excitation and emission filters were set at 485/500–550 nm respectively. Similarly with some modifications, cytosolic superoxide levels were determined using dihydroxyethidium staining. Briefly, cells were grown on coverslips to 70–80% confluency and replaced the complete media with reduced serum media for overnight. […] Following DHE staining, DAPI is used to satin nuclei of the cells as described earlier. Fluorescence images were taken on Nikon-EclipseTS100 microscope.

The test system of assay [2] is phosphorylation of tau in SH-SY5Y cells. The assay is described as follows: Tau-phosphorylation assay by flow cytometry (anti-tau pSer262). It is filed as cell-based, human. The note with it: 80–120 μM, 24 hrs. For orientation: A flow cytometer gives signals particle by particle.
Assay [3] addresses T1, MARK4 (Homo sapiens, UniProt Q96L34).
T1 construct: inferred from Ni-NTA purification; made in house
T1 sequence (Q96L34 59-368): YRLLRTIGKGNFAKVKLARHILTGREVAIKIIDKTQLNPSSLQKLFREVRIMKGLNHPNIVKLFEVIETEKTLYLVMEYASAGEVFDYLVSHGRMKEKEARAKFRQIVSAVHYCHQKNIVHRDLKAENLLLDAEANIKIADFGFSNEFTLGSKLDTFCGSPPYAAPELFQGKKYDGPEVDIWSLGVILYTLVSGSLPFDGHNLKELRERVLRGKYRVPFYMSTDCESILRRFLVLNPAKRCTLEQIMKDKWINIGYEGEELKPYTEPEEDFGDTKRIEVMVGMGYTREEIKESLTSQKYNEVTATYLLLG
In words: Fluorescence quenching binding study (modified Stern-Volmer). The note with it: excitation 280 nm, 25 °C.

In the next assay the test system is HEK293 cells. In words: MTT cell proliferation assay, HEK293. In kind it is cell-based, human. Particulars: 48 h, at a dose even higher than 200 μM. On the procedure:
(§2) Briefly, breast cancer cells (MCF-7), human cervical cancer cells (HeLa), human neuroblastoma (SH-SY5Y) cells and human embryonic kidney cells (HEK293T) were seeded in a 96 well plates at a concentration of 10 × 10^3 viable cells per well. […] After 48 h of treatment, both medium and inhibitor were removed from the cells, washed twice with phosphate buffer saline (PBS) and then 20 µl MTT (from 5 mg/ml stock) and 100 µl DMEM was loaded to each well followed by 4–5 hours incubation in a CO2 incubator at 37 °C. Finally, the residual MTT medium was removed carefully and dissolves the crystals of formazan by adding 100 µl DMSO in each well. The micro-titer plates were then agitated for 15–20 minutes on an orbital plate shaker and then absorbance at 570 nm was determined on a titerplate reader (BioRad). The absorbance value so obtained was converted into percentage viability in comparison to the control cells (untreated cells/cells treated with media only). For cell proliferation studies doxorubicin has been taken as positive control.
A general note: Formazan colour is commonly taken as a measure of viable cells.

Another assay deals with SH-SY5Y cells. The assay is described as follows: MTT cell proliferation assay, SH-SY5Y. In kind it is cell-based, human. The note with it: 48 h, at a dose even higher than 200 μM. On the procedure: as §2
Assay [4] has as its system MCF-7 cells. In words: Annexin-V apoptosis assay by flow cytometry. It is filed as cell-based, human. The note with it: MCF-7, IC50 concentration (rutin 80 μM, vanillin 120 μM), 48 h. From the text: Apoptosis plays a central role in the progress and pathophysiology of a wide variety of diseases. However, due to impairment of apoptotic signal transmission most of the cancerous cells evade apoptosis. […] Annexin- V staining was used to study the apoptosis. […] Cells were washed twice with phosphate-buffered saline (PBS) and stained with FITC labeled Annexin- V. Annexin- Vpositive cells were examined by flow cytometry. […] Annexin-V staining was used to determine the cell apoptosis, [73]. […] After treatment, nearly 2 × 10^6 cells were trypsinized and washed two times with 5 ml of PBS by centrifuging at 1800 rpm for 4 min. FITC-Annexin-V staining was done by using FITC-Annexin-V kit according to the manufacturer’s instructions (BD-Biosciences, USA). 10,000 events for each sample were analyzed by flow cytometry BD FACS Canto and data analysis was performed with help of flowJo software.

A further assay concerns HeLa cells. In words: MTT cell proliferation assay, HeLa. It is filed as cell-based. Particulars: Homo sapiens, 48 h, read-out: IC50 (cell viability). On the procedure:
as §2

Assay [5] has as its target T1, MARK4. The assay is described as follows: ATPase inhibition assay ([γ-32P]ATP hydrolysis, TLC). In kind it is biochemical.
Assay [6] relates to MCF-7 cells. The assay is described as follows: Intracellular ROS by DCFDA staining. In kind it is cell-based, human. The note with it: MCF-7, 20–120 μM, 12 h. As for the experimental part:
as §1

For assay [7], the target named is T1, MARK4. The assay is described as follows: Isothermal titration calorimetry. The note with it: ITC, two-site model; for K a1 (association constant): site 1, 25 °C; for K a2 (association constant): site 2, 25 °C. In kind it is binding.
Assay [8] deals with MCF-7 cells. The assay is described as follows: MTT cell proliferation assay, MCF-7. In kind it is cell-based. The note with it: Homo sapiens, MCF7; MCF-7, MTT, 48 h; read-out: IC50 (cell viability). As for the experimental part:
as §2

The mark [9] stands for this setting: site 1, read-out: K D1 (dissociation constant).
The mark [10] stands for this setting: site 2, read-out: K D2 (dissociation constant).

Structures are written as SMILES. Read-outs that look alike come from different tables or passages of the source. Where only a bound is given, the exact number is not on record here.

The values that follow come from paper PMC5573368, “Elucidation of Dietary Polyphenolics as Potential Inhibitor of Microtubule Affinity Regulating Kinase 4: In silico and In vitro Studies” (Scientific Reports, 2017).

As for `C[C@@H]1O[C@@H](OC[C@H]2O[C@@H](Oc3c(-c4ccc(O)c(O)c4)oc4cc(O)cc(O)c4c3=O)[C@H](O)[C@@H](O)[C@@H]2O)[C@H](O)[C@H](O)[C@H]1O` [Rutin], in the assay with MCF-7 cells [1], the “Cytoplasmic superoxide levels (DHE fluorescence)” value is reported as “decreases cytoplasmic superoxide levels”. Besides, in [2], the Phosphorylation of tau entry was “inhibit the phosphorylation of tau”. Moreover, the “Binding affinity (K a)” value at MARK4 [3] is 287000 M⁻¹. The “Effect on cell viability” value in the assay on HEK293 cells was “did not inhibit the viability”. Besides, the “Effect on cell viability” value with SH-SY5Y cells is recorded as “did not inhibit the viability”. Also, the “Increase in apoptosis as compared to the control cells” value in the assay on MCF-7 cells [4] came to 12%. Also, in the assay on HeLa cells, the IC50 is above 200 µM. In addition, the inhibition at 40 µM on MARK4 [5] was around 50%. Further, the “ATPase enzyme activity in initial screening” value on MARK4 [5] (initial screening, compound 30 µM (Fig. S5)) was “significant decrease in the enzyme activity”. Besides, the “DCF fluorescence (intracellular ROS)” value in the assay with MCF-7 cells [6] is “dose-dependent decrease in DCF fluorescence”. Besides, at MARK4 [7] (site 1), the “ΔH 1 (enthalpy change)” value is “ΔH 1 = −4.61 × 10^6 cal/mol” and the “ΔS 1” value is on record as “ΔS 1 = −1.52 × 10^4 cal/mol/deg”. For the same compound, at MARK4 [7], the “K a1 (association constant)” value is “K a1 = 2.04 × 10^5 ± 0.15 × 10^5 M^−1” and the “K a2 (association constant)” value is given as “K a2 = 1.72 × 10^6 ± 0.31 × 10^6 M^−1”. For the same compound, the Kd on MARK4 [7] (setting [9]) was 4.9 µM. Further, on MARK4 [7] (site 2), the “ΔH 2 (enthalpy change)” value is reported as “ΔH 2 = −1.0 × 10^4 cal/mol” and the “ΔS 2” value was “ΔS 2 = −4.74 cal/mol/deg”. Moreover, on MARK4 [7] (setting [10]), the Kd was 0.581 µM. Also, in the assay on MCF-7 cells [8], the IC50 came to 80 µM.

For the compound `COc1cccc2c1C(=O)c1c(O)c3c(c(O)c1C2=O)C[C@@](O)(C(=O)CO)C[C@@H]3O[C@H]1C[C@H](N)[C@H](O)[C@H](C)O1` [doxorubicin, reference compound], in the assay on MCF-7 cells [8], the IC50 turned out to be 0.12 µM.

Regarding `COc1cc(/C=C/C(=O)O)ccc1O` [Ferulic acid], the “Binding affinity (K a)” value at MARK4 [3] amounted to 13000 M⁻¹.

`COc1cc(C=O)ccc1O` [Vanillin]: the “Cytoplasmic superoxide levels (DHE fluorescence)” value in the assay on MCF-7 cells [1] was “decreases cytoplasmic superoxide levels”. For the same compound, the Phosphorylation of tau result in assay [2] is “inhibit the phosphorylation of tau”. Moreover, at MARK4 [3], the “Binding affinity (K a)” value was 16500 M⁻¹. Also, the “Effect on cell viability” value with HEK293 cells and in the assay on SH-SY5Y cells was “did not inhibit the viability” in each case. In the assay with MCF-7 cells [4], the “Increase in apoptosis as compared to the control cells” value was 9%. Moreover, the IC50 in the assay on HeLa cells is above 200 µM; in the assay on MCF-7 cells [8], 120 µM. Also, the inhibition at 40 µM against MARK4 [5] is around 50%. Moreover, the “DCF fluorescence (intracellular ROS)” value in the assay with MCF-7 cells [6] is given as “dose-dependent decrease in DCF fluorescence”. At MARK4 [7], the “K a1 (association constant)” value was “K a1 = 8.43 × 10^3 ± 0.5 × 10^3 M^−1”. For the same compound, the Kd at MARK4 [7] (setting [9]) came out at 119 µM; on MARK4 [7] (setting [10]), 6.9 µM. At MARK4 [7], the “K a2 (association constant)” value is recorded as “K a2 = 1.45 × 10^5 ± 0.29 × 10^5 M^−1”.

Consider `O=C(O)c1cc(O)c(O)c(O)c1` [Gallic acid], for which the “Binding affinity (K a)” value at MARK4 [3] is 7.6 M⁻¹.

In the case of `COc1ccc([C@@H]2CC(=O)c3c(O)cc(O[C@@H]4O[C@H](CO[C@@H]5O[C@@H](C)[C@H](O)[C@@H](O)[C@H]5O)[C@@H](O)[C@H](O)[C@H]4O)cc3O2)cc1O` [Hesperidin], the “Binding affinity (K a)” value at MARK4 [3] amounted to 112 M⁻¹.

What is called IC50 is the point on the concentration scale where inhibition reaches its midpoint. Broadly, the inhibition is the percentage by which the read-out fell short of the control.
